Assay results reported in patent publication US7807705B2, “Potent indole-3-carbinol-derived antitumor agents” (The Ohio State University Research Foundation, priority 2007, dated 2010).
“Also recorded” adds a separate entry of the source.

Columns and labels:
[1] = test system: Normal human prostate epithelial cells (PrEC); experiment: MTT cell viability assay; format: cell-based
Text: (§1) Cell Culture. LNCaP androgen-responsive (p53^+/+) and PC-3 androgen-nonresponsive (p53^−/−) human prostate cancer cells were purchased from the American Type Tissue Collection (Manassas, Va.) and cultured in RPMI 1640 medium (Gibco, Grand Island, N.Y.) supplemented with 10% fetal bovine serum (FBS; Gibco).—Normal human prostate epithelial cells (PrEC) were obtained from Cambrex Bioscience-Walkersville (Walkersville, Md.), and maintained in the vendor's recommended defined prostate epithelial growth medium. All cell types were cultured at 37° C. in a humidified incubator containing 5% CO2.
(§2) Cell viability analysis. The effect of test agents on cell viability was assessed by using the MTT [3-(4,5-dimethylthiazol-2-yl)-2,5-diphenyl-2H-tetrazolium bromide] assay in six to twelve replicates. Cancer cells and PrECs were grown in 5% FBS-supplemented RPMI 1640 medium or 5% FBS-supplemented prostate epithelial growth medium, respectively, in 96-well, flat-bottomed plates for 24 h, and then exposed to various concentrations of test agents in the same medium for the indicated time intervals. […] Absorbance at 570 nm was determined on a plate reader.
(§3) These agents (A1-A24) were evaluated for their ability to reduce cell viability of PC-3 (p53^−/−) androgen-nonresponsive and LNCaP (p53^+/+) androgen-responsive prostate cancer cells after 24-h exposure by MTT assay.

LNCaP cells = experiment: Cell proliferation by direct cell counting (Coulter counter); format: cell-based, human
Experimental: (§4) Cell Proliferation. PC-3 and LNCaP cells were seeded into six-well plates at approximately 200,000 cells/well in 5% FBS-containing RPMI 1640 medium. Following a 24 h attachment period, cells were treated in triplicate with the indicated concentrations of test agent or DMSO vehicle in 5% FBS-containing RPMI-1640 medium. At different time intervals, cells were harvested by trypsinization, and numerated using a Coulter counter (Model Z1 D/T, Beckman Coulter, Fullerton, Calif.).
(§5) In line with the cell viability data, a concentration of at least 300 μM was required for indole-3-carbinol to attain the same level of efficacy.

PC-3 cells [2] = experiment: as above; format: cell-based, human
Experimental: as §4, §5

[3] = NMR analysis of acid stability; format: physicochemical; settings: CD3OD plus deuterium-labeled HCl, room temperature; indole-3-carbinol t=5 min, OSU-A9 up to 8 h
Experimental: Nuclear magnetic resonance (NMR) analysis of acid stability. […] To each solution was added 100 μl of deuterium-labeled HCl, and NMR spectra were recorded in a 300 MHz NMR spectrometer at room temperature at different time intervals.
Individual compounds (20 mg) were dissolved in 1 ml of deuterium-labeled methanol (CD3OD).

PPARγ = target: T1, PPARγ (Homo sapiens, UniProt P37231); experiment: PPRE-luciferase reporter assay for PPARγ activation in PC-3 cells; format: cell-based; settings: even at 20 μM, 24 h
T1 construct: PC-3 cells were transfected with PPRE-X3-TK-Luc; endogenous in cells; host or cells: PC-3 cells
T1 sequence (P37231 1-505): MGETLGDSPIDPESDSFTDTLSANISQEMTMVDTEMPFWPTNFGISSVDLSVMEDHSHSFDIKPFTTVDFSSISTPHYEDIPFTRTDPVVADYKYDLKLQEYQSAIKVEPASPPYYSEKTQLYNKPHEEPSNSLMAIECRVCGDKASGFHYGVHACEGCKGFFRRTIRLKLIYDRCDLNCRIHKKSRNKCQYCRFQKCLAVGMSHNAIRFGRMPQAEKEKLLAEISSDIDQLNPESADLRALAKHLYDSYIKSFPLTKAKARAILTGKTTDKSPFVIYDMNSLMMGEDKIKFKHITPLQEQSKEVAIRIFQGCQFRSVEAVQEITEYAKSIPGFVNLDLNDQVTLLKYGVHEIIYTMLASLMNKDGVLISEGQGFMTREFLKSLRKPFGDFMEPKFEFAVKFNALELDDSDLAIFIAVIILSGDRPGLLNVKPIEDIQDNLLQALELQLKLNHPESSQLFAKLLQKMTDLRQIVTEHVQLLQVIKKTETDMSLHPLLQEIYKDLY
Experimental: Luciferase assay for PPARg activation. The PPRE-x3-TK-Luc reporter vector contains three copies of the PPAR-response element (PPRE) upstream of the thymidine kinase (tk) promoter-luciferase fusion gene and was kindly provided by Dr. Bruce Spiegelman (Harvard University, Cambridge, Mass.). PC-3 cells were cultured in a 100 mm plate in phenol red-free RPMI 1640 medium containing 10% FBS until the achieved 50-70% confluency, after which they were transfected with 6 μg of the plasmid using Fugene 6 (Roche, Indianapolis, Ind.) in RPMI 1640 medium. For each transfection, herpes simplex virus-thymidine kinase (HSV-TK) promoter-driven Renilla luciferase (phRL-TK) was used as an internal control for normalization. Following transfections, cells were treated as indicated, in RPMI 1640 medium containing 10% charcoal-stripped FBS. Cells were then collected into Passive Lysis Buffer (Promega), and luciferase activities in the cell lysates were determined by luminometry. All transfection experiments were carried out in triplicate plates and repeated separately at least three times.

PC-3 cells [4] = experiment: Apoptosis analysis (morphology, caspase-3 activation and PARP cleavage by Western blot); format: cell-based, human; settings: for caspase-3 activation and PARP cleavage: 48 hours, Western blot
Experimental: Apoptosis analysis. Drug-induced apoptotic cell death was assessed by Western blot analysis of caspase-3 activation and poly-(ADP-ribose)polymerase (PARP) cleavage. […], washed with ice-cold PBS, and resuspended in lysis buffer containing 20 mM Tris-HCl, pH 8, 137 mM NaCl, 1 mM CaCl2, 10% glycerol, 1% Nonidet P-40, 0.5% deoxycholate, 0.1% SDS, 100 μM 4-(2-aminoethyl)benzenesulfonyl fluoride, leupeptin at 10 μg/mL, and aprotinin at 10 μg/mL. Soluble cell lysates were collected after centrifugation at 10,000 g for 5 min. Equivalent amounts of proteins (60-100 μg) from each lysate were resolved in 8% SDS-polyacrylamide gels. Proteins were transferred to nitrocellulose membranes, and analyzed by immunoblotting with antibodies against caspase-3 or PARP as described below.
Drug-treated cells became shrunken, rounded, and detached from the dish.

[5] = test system: Akt, GSK3β, Bad, ERKs, JNK, p38, Bcl-2 family members, survivin, NF-kB, cyclin D1, p27, p21 in PC-3 cells; experiment: Immunoblotting of signaling targets in PC-3 cells; format: cell-based, human; settings: 48 h; for expression of Bax, p27, and p21: dose-dependent
Experimental: Immunoblotting. Biomarkers of apoptosis and signaling components associated with cell survival and growth arrest were assessed by Western immunoblotting as follows. Treated cells were washed in PBS, resuspended in SDS sample buffer, sonicated for 5 sec, and then boiled for 5 min. After brief centrifugation, equivalent amounts of proteins from the soluble fractions of cell lysates were resolved in 10% SDS-polyacrylamide gels on a Minigel apparatus, and transferred to a nitrocellulose membrane using a semi-dry transfer cell. The transblotted membrane was washed three times with TBS containing 0.05% Tween 20 (TBST). After blocking with TBST containing 5% nonfat milk for 60 min, the membrane was incubated with an appropriate primary antibody at 1:500 dilution (with the exception of anti-b-actin antibody, 1:2,000) in TBST-5% low fat milk at 4° C. for 12 h, and was then washed three times with TBST. The membrane was probed with goat anti-rabbit or anti-mouse IgG-horseradish peroxidase conjugates (1:2,500) for 90 min at room temperature, and washed three times with TBST. The immunoblots were visualized by enhanced chemiluminescence.
Indole-3-carbinol has been reported to target an array of signaling pathways to induce apoptosis and cell cycle arrest in cancer cells. […] These targets comprised three categories of biomarkers: a) phosphorylation of signaling kinases: Akt and its downstream effector GSK3β, ERKs, JNKs, and p38; b) phosphorylation/expression of Bcl-2 family members: Bad, Bax, Bcl-2, Bcl-xL, and Mcl-1; c) expression of other apoptosis and cell-cycle regulatory proteins: survivin, NF-kB/RelA, cyclin D1, p27, and p21 (FIG. 4).

[6] = Maximum tolerated dose determination; format: in vivo, athymic nude mice; settings: intraperitoneal, daily for 14 days, doses up to 25 mg/kg (tested 5, 10, 25, 50 mg/kg/day)
[7] = Tolerability in PC-3 tumor-bearing mice (body weight, necropsy, histology, blood); format: in vivo, athymic nude mice; settings: 10 or 25 mg/kg daily, intraperitoneal, 42 days
Experimental: (§6) In vivo studies. […] Body weights were measured weekly.

Bcl-xL = experiment: Intratumoral biomarker immunoblotting of PC-3 tumor homogenates; format: in vivo, human; settings: intraperitoneal, 42 days
Experimental: as §6

cyclin D1 = experiment: as above; format: in vivo, human; settings: intraperitoneal, 42 days
Experimental: as §6

p27 = experiment: as above; format: in vivo, human; settings: intraperitoneal, 42 days
Experimental: as §6

phospho-Akt = experiment: as above; format: in vivo, human; settings: intraperitoneal, 42 days
Experimental: as §6

phospho-p38 = experiment: as above; format: in vivo, human; settings: intraperitoneal, 42 days
Experimental: as §6

[8] = test system: LNCaP (p53+/+) androgen-responsive prostate cancer cells; experiment: MTT cell viability assay; format: cell-based, human; settings: 24-h exposure
Text: as §1, §2, §3

[9] = test system: PC-3 (p53−/−) androgen-nonresponsive prostate cancer cells; experiment: MTT cell viability assay; format: cell-based, human; settings: PC-3 cells, 24-h exposure
Text: as §1, §2, §3

androgen receptor (AR) = experiment: Immunoblotting of AR expression in LNCaP cells; format: cell-based, human; settings: highest doses examined (data not shown)

## O=[N+]([O-])c1cc(S(=O)(=O)n2cc(CO)c3ccccc32)ccc1Cl [OSU-A9, [1-(3′-nitro-4′-chlorobenzenesulfonyl)-1H-indol-3-yl]-methanol]
[1]; PrEC IC50 versus PC-3 and LNCaP IC50
  lower sensitivity of PrECs than the prostate cancer cells: 2.2-4.5 fold
[1]; PrECs, MTT assay
  IC50: 9 µM
LNCaP cells
  concentration that completely suppressed cell proliferation: ≥ 2.5 µM
PC-3 cells [2]
  concentration that completely suppressed cell proliferation: ≥ 2.5 µM
[3]
  chemical stability in 0.1 N HCl, CH2OH proton signal by NMR: no appreciable change
PPARγ
  PPARγ transactivation: lacked appreciable activity
PC-3 cells [4]; 5 μM, 24 h
  morphological changes, light microscopy: pronounced morphological changes
PC-3 cells [4]
  caspase-3 activation and PARP cleavage: dose-dependent effect
PC-3 cells [4]; caspase-3 activation and PARP cleavage
  apoptosis-inducing potency versus indole-3-carbinol: 100 fold
[5]
  phosphorylation of Akt and its substrates GSK3b and Bad: dose-dependent dephosphorylation
  phosphorylation of ERKs, JNK, and p38: increased phosphorylation
  expression of Bax, p27, and p21: up-regulating the expression
[6]
  weight loss: No apparent weight loss
[7]
  body weight compared to vehicle-treated controls: without significant loss of body weight
  hematological and serum chemistry findings: normal hematological and serum chemistry findings
  overt toxicity / tolerability: well-tolerated; also recorded: without overt signs of toxicity
[7]; limited to peritoneal surfaces
  lesions observed at necropsy: mild to moderate amounts of fibrous adhesions
[7]; with the exception of the affected peritoneum
  microscopic lesions in tissues examined: no treatment-associated lesions; also recorded: no significant lesions
Bcl-xL; 10 mg/kg per day
  reduction in intratumoral Bcl-xL: 34±8%
Bcl-xL; 25 mg/kg per day
  reduction in intratumoral Bcl-xL: 86±4%
Cyclin D1; 10 mg/kg per day
  reduction in intratumoral cyclin D1: 70±3%
Cyclin D1; 25 mg/kg per day
  reduction in intratumoral cyclin D1: 88±3%
p27; 10 mg/kg per day
  increase in intratumoral p27: 1.8±0.3 fold
p27; 25 mg/kg per day
  increase in intratumoral p27: 2.7±1.4 fold
phospho-Akt; 10 mg/kg per day
  reduction in intratumoral phospho-Akt compared to vehicle-treated controls: 83±8%
phospho-Akt; 25 mg/kg per day
  reduction in intratumoral phospho-Akt compared to vehicle-treated controls: 94±1%
phospho-p38; 10 mg/kg per day
  increase in intratumoral phospho-p38: 9.0±3.5 fold
phospho-p38; 25 mg/kg per day
  increase in intratumoral phospho-p38: 10.1±2.4 fold

## OCc1c[nH]c2ccccc12 [indole-3-carbinol]
[8]
  IC50: 267 µM
[9]
  IC50: 512 µM
LNCaP cells
  concentration that completely suppressed cell proliferation: at least 300 μM
PC-3 cells [2]
  concentration that completely suppressed cell proliferation: at least 300 μM
[3]
  chemical stability in 0.1 N HCl, CH2OH proton signal by NMR: immediate shift of the CH2 signal
PC-3 cells [4]; 500 μM, 48 h
  morphological changes, light microscopy: pronounced morphological changes
PC-3 cells [4]
  caspase-3 activation and PARP cleavage: dose-dependent effect
[5]
  phosphorylation of Akt and its substrates GSK3b and Bad: dose-dependent dephosphorylation
  phosphorylation of ERKs, JNK, and p38: increased phosphorylation
  expression of Bax, p27, and p21: up-regulating the expression
Androgen receptor (AR)
  AR expression: neither agents had an appreciable effect
